Reference: patent US8394762B2, “Self-decontaminating coatings containing antimicrobial peptides” (The United States of America, as represented by the …, priority 2010, dated 2013)

Assays:
[1] = system: Gram-positive and Gram-negative bacteria; details: both Gram-positive and Gram-negative bacteria; Iijima et al. 2003; cited from earlier work
eukaryotic cells = details: literature; cited from earlier work
[2] = system: Escherichia coli (ATCC 11229); experiment: Surface testing (log kill) of peptide-containing acrylic coatings, Gram-negative; type: cell-based; details: for Gram Negative Sample 1 Log Kill / Gram Negative Sample 2 Log Kill / Gram Negative Sample 3 Log Kill / Gram Negative Average Log Kill: 2 hr contact; for Gram Negative Sample 1 Log Kill / Gram Negative Sample 2 Log Kill / Gram Negative Sample 3 Log Kill: 1×10^5 bacteria; for Gram Negative Average Log Kill: average of triplicate
Excerpt: (§1) Bacteria and media: Bacterial strains were obtained from the American Type Culture Collection (ATCC, Manassas, Va.) Staphylococcus aureus (ATCC 25923) and Escherichia coli (ATCC 11229) were used for bacterial Gram-positive and Gram-negative challenges, respectively. Luria-Bertani (LB) media (Difco Laboratories, Detroit, Mich.), prepared as per the manufacturer's specifications, was used as a bacterial growth and dilution medium for preparation of bacteria for Gram-positive and Gram-negative challenges.
(§2) Peptides: Peptides Chr-1, Chr-3, Chr-1 Truncated, and Chr-3 Truncated were obtained from Biosynthesis, Inc. (Lewisville, Tex.). Peptides were synthesized then purified by HPLC, Peptides arrived lyophilized, and were resuspended in sterile H2O. For minimum inhibitory concentration (MIC) testing, this suspension was added to media as described below. For surface challenges, this peptide mixture was added to a commercial acrylate coating resin system at 1% (w/w) solids based on the solids of the polymer.
(§3) Coating preparation: Films were prepared by combining 25 mg of the respective peptide with 4.95 g acrylate resin (Minwax® Polycrylic®, a water borne polyacrylate resin, 50% w/w solids) with agitation. The final solution was allowed to stir for an additional 30 min and films were cast by brush onto a pre-cleaned aluminum foil. The coatings were allowed to cure at ambient conditions for 24 hours prior to microbial testing. Average thickness of films was determined by a QuaNix 4500 (Automation) paint thickness gauge.
(§4) Surface testing: Bacteria were grown at 37° C. Log phase cells were harvested by centrifugation, counted on a hemocytometer using bright field microscopy, pelleted by centrifugation at 4000×g for 10 min, and resuspended in a 0.5% NaCl solution at a concentration of 1×10^7 cfu/mL. To prevent desiccation of the bacteria during testing, a hydration chamber was prepared. The chamber consisted of a sterile 3×3 in gauze pad placed in the bottom of a sterile 150×15 mm Petri dish. The gauze pad was saturated with 5 mL of sterile water and the test samples placed on top. A 10 μL aliquot containing, 1×10^5 bacteria was added to each test coating (280 mm^2), and then placed in a hydration chamber at room temperature. After 2 hr of incubation, the remaining bacteria were recovered by placing the coating in a tube containing 5 mL sterile LB media, followed by 30 sec of vortexing. Serial dilutions were carried out, and incubated for 18 hr at 37° C. with agitation. Following incubation, the cultures were examined for the presence of turbidity, indicating bacterial growth. Each coating was tested in triplicate. […] All bacterial challenge procedures were conducted using standard aseptic techniques in a BSL-2 hood.

[3] = system: Staphylococcus aureus (ATCC 25923); experiment: MIC testing of peptides in solution, Gram-positive; type: cell-based; details: peptide in solution, LB media, 18 hr 37° C., 1×10^5 CFU
Excerpt: as §1
as §2, with “For surface challenges, this peptide mixture was added to a commercial acrylate coating resin system at 1% (w/w) solids based on the solids of the polymer.” left out
Bacterial challenge: MIC testing: To determine the minimum inhibitory concentration (MIC) of peptides, compounds were weighed and dissolved in sterile water. […] Log phase cells were harvested by centrifugation, counted on a hemocytometer using bright field microscopy, pelleted by centrifugation at 4000×g for 10 min, and resuspended in a 0.5% NaCl solution at a concentration of 1×10^7 cfu/mL. […] MIC was determined to be the lowest concentration of biocide that prevented visible bacterial growth at 18 hr.

[4] = Surface energy and contact angle of peptide coatings (sessile drop); type: physicochemical; details: peptide in acrylic coating; for Critical Surface Energy: calculated from contact angle data; for Contact angle CH2OHCH2OH: ethylene glycol; for Contact angle CH2OHCH2OH / Contact angle CH2I2 / Contact angle H2O: 15 sec after application; for Contact angle CH2I2: methylene iodide; for Contact angle H2O: water
Description: Coating preparation: Films were prepared by combining 25 mg of the respective peptide with 4.95 g acrylate resin ([…]® Polycrylic®, a water borne polyacrylate resin, 50% w/w solids) with agitation. The final solution was allowed to stir for an additional 30 min and films were cast by brush onto a pre-cleaned aluminum foil. The coatings were allowed to cure at ambient conditions for 24 hours prior to microbial testing. Average thickness of films was determined by a QuaNix 4500 (Automation) paint thickness gauge. Surface Energy and Contact Angle: Surface energy and contact angle measurements were performed using a VCA 2500 video contact angle system by AST Products, Inc. Contact angle measurements using the sessile drop technique. An image was captured of the interface 15 sec after application and contact angle was measured. Due to the complex nature of coating and difficulty in ascertaining the surface segregating ability of the peptide. The surface contact angle method was used and subsequent critical surface energy calculations were based on the data obtained. In all cases the surface became more hydrophobic as indicated by the significant increase in contact angle for water. […] Upon subsequent analysis, a correlation was observed between critical surface energy and surface antimicrobial properties, especially Gram-positive, and to a much lesser extent Gram-negative.

[5] = Surface segregation of peptide, bromophenol blue staining; type: physicochemical; details: peptide in acrylic coating; for Molecules Peptide per mm^2 at surface of coating: absorbance at 600 nm
Description: as §3
Surface Segregation of Peptide: Each 280 mm^2 section of the test coating was submerged in 0.5% bromophenol blue for one minute. Coatings were then removed and washed three times with 20 mL di-H2O. Bromophenol blue was then recovered from the test samples using 0.05 M HCl in ethanol. Absorbance at 600 nm was determined using a Cary 5E UV-Vis-NIR (Varian, Walnut Creek, Calif.). Beer's Law was used to determine concentration of bromophenol blue and thus concentration of peptides at the surface of the coatings.
Bromophenol blue has been used extensively to quantify the amount of protein or peptide in a solution (Bonate, Anal Biochem 1988, 175, 300-4; Schosinsky et al., Clin Chem 1987, 33, 223-6). A test method to visualize surface peptide using bromophenol blue was adapted from these solution test methods. To determine the extent which peptides were segregated to the surface of test coatings, each coating was reacted with an aqueous solution containing 0.5% bromophenol blue. This solution provided molar excess of bromophenol blue that was able to undergo an acid-base reaction with the amines of the peptide at a 1:1 ratio. The reaction was then reversed, and the bromophenol blue recovered with […]. The absorbance of this solution at 600 nm was determined and Beer's Law was used to determine the concentration of bromophenol blue (FIG. 2). This could be directly converted into number of peptides at the surface and correlated directly to the effectiveness of each coating.

[6] = system: Staphylococcus aureus (ATCC 25923); experiment: Surface testing (log kill) of peptide-containing acrylic coatings, Gram-positive; type: cell-based; details: for Surface antimicrobial activity of coating (in words), Gram-positive / Gram Positive Sample 1 Log Kill / Gram Positive Sample 2 Log Kill / Gram Positive Sample 3 Log Kill / Gram Positive Average Log Kill: 1% (w/w) peptide in acrylic coating; for Gram Positive Sample 1 Log Kill / Gram Positive Sample 2 Log Kill / Gram Positive Sample 3 Log Kill / Gram Positive Average Log Kill: 2 hr contact; for Gram Positive Sample 1 Log Kill / Gram Positive Sample 2 Log Kill / Gram Positive Sample 3 Log Kill: 1×10^5 bacteria; for Gram Positive Average Log Kill: average of triplicate
Excerpt: as §1, §2, §3, §4

Escherichia coli = experiment: MIC testing of peptides in solution, Gram-negative; type: cell-based; details: peptide in solution, LB media, 18 hr 37° C., 1×10^5 CFU
[7] = 1% (w/w) peptide in acrylic coating

| Substance | Antimicrobial activity concentration [1] | Toxicity to eukaryotic cells (eukaryotic cells) | Gram Negative Sample 1 Log Kill [2, 7] | Gram Negative Sample 2 Log Kill [2, 7] | Gram Negative Sample 3 Log Kill [2, 7] | Gram Negative Average Log Kill [2, 7] | MIC Gram + [3] | Critical Surface Energy [4] | Contact angle CH2OHCH2OH [4] | Contact angle CH2I2 [4] | Contact angle H2O [4] | Molecules Peptide per mm^2 at surface of coating [5] | Surface antimicrobial activity of coating (in words), Gram-positive [6] | Gram Positive Sample 1 Log Kill [6] | Gram Positive Sample 2 Log Kill [6] | Gram Positive Sample 3 Log Kill [6] | Gram Positive Average Log Kill [6] | MIC Gram − (Escherichia coli) | other results |
| --- | --- | --- | --- | --- | --- | --- | --- | --- | --- | --- | --- | --- | --- | --- | --- | --- | --- | --- | --- |
| Chr-1: Full length antimicrobial peptide Chrysophsin-1 from gills of red sea bream Chrysophrys major, SEQ. ID. NO. 1 (FFWLIKGAIHAGKAIHGLIHRRRH; Chrysophrys major) | low micromolar | varying levels of toxicity | 1 | 2 | 1 | 1.3333 | 0.00667 mg of peptide per mL of culture media | 131.6 dynes/cm | 60.77(±3.35) | 69.45(±4.81) | 53.05(±4.04) | 6.8 × 10^13 Molecules Peptide per mm^2 | high activity | 4 | 4 | 3 | 3.6667 | 0.000667 mg of peptide per mL of culture media | Surface antimicrobial activity of coating (in words), Gram-negative [2, 7]: high activity; Reduction of Gram-negative bacteria by peptide containing coating ([2]; after two hours): 90%; Reduction of bacterial loads by coating ([6]; Gram-positive and Gram-negative together): at least 90%; Reduction of Gram-positive bacteria by peptide containing coating ([6]; after two hours): 99.9% |
| Chr-3: Full length antimicrobial peptide Chrysophsin-3 from gills of red sea bream Chrysophrys major, SEQ. ID. NO. 3 (FIGLLISAGKAIHDLIRRRH; Chrysophrys major) | low micromolar | varying levels of toxicity | 0 | 0 | 0 | 0 | 0.00667 mg of peptide per mL of culture media | 97.22 dynes/cm | 63.02(±3.51) | 64.57(±3.52) | 43.88(±5.01) | 1.9 × 10^13 Molecules Peptide per mm^2 | moderate activity | 1 | 1 | 1 | 1 | 0.0667 mg of peptide per mL of culture media | Peptide at surface of coating, % of total peptide [5]: (~1%) |
